Tests used:
Format in all cases: binding
[1] = system: Bacillus anthracis spores
Bacillus thuringiensis = system: Bacillus thuringiensis
Bacillus subtilis = system: Bacillus subtilis
Bacillus licheniformis = system: Bacillus licheniformis
Bacillus megaterium = system: Bacillus megaterium
[2] = system: biotinylated Bacillus anthracis spores
Bacillus cereus = system: Bacillus cereus
[3] = system: Bacillus anthracis spores; remark: listed apart in the source

DARGTTHM
binding in the phage-capture assay (percentage recovery, eluted to input phage) [1]: high binding | bound to Bacillus anthracis fold better than to Bacillus thuringiensis (Bacillus thuringiensis): 2.1 fold | bound to Bacillus anthracis fold better than to Bacillus subtilis (Bacillus subtilis): 25 fold | bound to Bacillus anthracis fold better than to Bacillus licheniformis (Bacillus licheniformis): 50 fold | bound to Bacillus anthracis fold better than to Bacillus megaterium (Bacillus megaterium): 75 fold | binding in the ELISA [2]: high binding | bound to Bacillus anthracis fold better than to Bacillus cereus (Bacillus cereus): 3.7 fold

DRTGATLT
binding in the phage-capture assay (percentage recovery, eluted to input phage) [1]: high binding

EPRAPASL
binding in the phage-capture assay (percentage recovery, eluted to input phage) [1]: high binding

EPRLSPHS
binding in the phage-capture assay (percentage recovery, eluted to input phage) [1]: high binding | bound to Bacillus anthracis fold better than to Bacillus thuringiensis (Bacillus thuringiensis): 6.9 fold | bound to Bacillus anthracis fold better than to Bacillus subtilis (Bacillus subtilis): 39 fold | bound to Bacillus anthracis fold better than to Bacillus licheniformis (Bacillus licheniformis): 70 fold | bound to Bacillus anthracis fold better than to Bacillus megaterium (Bacillus megaterium): 43 fold | binding in the ELISA [2]: high binding | bound to Bacillus anthracis fold better than to Bacillus cereus (Bacillus cereus): 3.5 fold

ETRVPHGA
bound to Bacillus anthracis fold better than to Bacillus thuringiensis (Bacillus thuringiensis): 2.2 fold | bound to Bacillus anthracis fold better than to Bacillus subtilis (Bacillus subtilis): 24 fold | bound to Bacillus anthracis fold better than to Bacillus licheniformis (Bacillus licheniformis): 12 fold | bound to Bacillus anthracis fold better than to Bacillus megaterium (Bacillus megaterium): 24 fold | binding in the ELISA [2]: high binding | bound to Bacillus anthracis fold better than to Bacillus cereus (Bacillus cereus): 2.4 fold

VTRNTSAS
binding in the phage-capture assay (percentage recovery, eluted to input phage) [1]: high binding | binding of phage to spores in ELISA revealed with monoclonal antibody BD8 [3]: specific binding | binding in the ELISA [2]: high binding

Reference: patent publication US20070037230A1 (priority 2005, published 2007)
